The record followed here is PMC4197335, “Cancer-Selective Targeting of the NF-κB Survival Pathway with GADD45β/MKK7 Inhibitors” (Cancer Cell, 2014).

pIC50: −log10 of the molar value. Read-outs that look alike come from different tables or passages of the source. Where a SMILES comes first, the peptide text is derived from it. [ ]: non-standard residue; d: D form. The star is where a group is joined. Benzoyl(3-OH,4-OMe) = COc1ccc(C(=O)*)cc1O; Cbz = O=C(OCc1ccccc1)*

This test deals with T1, GADD45β/MKK7 complex (Homo sapiens, UniProt O14733).
T1 construct: Full-length human (h)MKK7 was expressed as a protein fused to an N-terminal GST tag (GST-MKK7); made in house
T1 sequence (O14733 1-419): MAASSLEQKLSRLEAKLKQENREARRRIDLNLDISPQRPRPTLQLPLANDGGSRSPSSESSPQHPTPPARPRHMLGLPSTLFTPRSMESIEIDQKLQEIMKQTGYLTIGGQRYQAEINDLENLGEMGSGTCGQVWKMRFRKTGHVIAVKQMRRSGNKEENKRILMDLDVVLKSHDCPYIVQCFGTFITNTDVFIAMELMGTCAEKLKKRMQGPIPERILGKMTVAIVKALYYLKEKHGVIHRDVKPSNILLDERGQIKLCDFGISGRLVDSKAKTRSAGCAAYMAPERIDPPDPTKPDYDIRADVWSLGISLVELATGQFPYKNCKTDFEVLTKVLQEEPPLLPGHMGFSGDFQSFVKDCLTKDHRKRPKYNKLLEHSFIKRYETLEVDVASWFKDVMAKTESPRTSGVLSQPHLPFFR
The experiment in a line: ELISA GADD45β/MKK7 competition assay. The test is classed as binding. The text has this: Additional details are provided in Supplemental Experimental Procedures.
(1:1,000) and the HRP chromogenic substrate, o -phenylenediamine (OPD). GST -coated wells wer e […]
The ELISA competition screen used f or the isolation of antagonists of the GADD45β /MKK7 […]
The library deconvolution strategy used for this screen was described previously […]
General information about this type of screens can be found elsewhere […]
Values were expressed as the percentage of inhibition of His6-hGADD45β binding to GST-hMKK7 relative to the binding measured in the absence of […]
Dose-response, ELISA GADD45β /MKK7 competition assays were carried out under similar […]
As part of the SAR analysis and lead optimization process, where appropriate, competitors were tested at a concentration up to 100 nM. In order to determine their stability in biolog ical f luids , peptides were incubated at the concentration of 10 µM in […]
calculated using at least 7 concentrations of peptide and def ined as the mean concentration of peptide […]
the absence of competitor. W here indicated, values were expressed as the percentage of inhibition of His 6 -hGADD45β binding to GST-hMKK7 relative to the binding measured in the absence of competitor.
GST was used as a control in all the experiments. […]
tetrapeptide used as negative control in some of the ELISA and cellular assays was as f ollows: z -DNC, z-T yr -Asp-His-Gln-NH 2 . […]

Setting [1] is: Table S2, peptide at 42 nM, read-out: % inhibition (ELISA).
Where [2] appears, read: Table S4, read-out: IC50s (ELISA).
Setting [3] is: Table S3, peptide at 10 nM, read-out: % inhibition (ELISA).
Where [4] appears, read: Table S3, read-out: IC50 (ELISA).
The mark [5] stands for this setting: Table S4, values marked (#), peptide at 42 nM, read-out: % inhibition of (ELISA).
Where [6] appears, read: Table S4, values marked (##), peptide at 10 nM, read-out: % inhibition of (ELISA).
Setting [7] is: Figure 3A, before preincubation with human serum, read-out: IC50.
The mark [8] stands for this setting: Figure 3B, after a 48 hr preincubation with human serum, read-out: IC50.

As to `CC(=O)N[C@@H](Cc1ccc(O)cc1)C(=O)N[C@@H](CCC(=O)O)C(=O)N[C@@H](CCCCN)C(=O)N[C@@H](Cc1c[nH]c2ccccc12)C(N)=O` [Ac-YEKW-NH2] (Ac-YEKW-NH2), the inhibition at 0.042 µM under setting [1] was 22%. In addition, the pIC50 under setting [2] is less than 7.38. The matching figures for `CC(=O)N[C@@H](Cc1ccc(O)cc1)C(=O)N[C@@H](CCC(=O)O)C(=O)N[C@@H](CCCCN)C(=O)N[C@@H](Cc1ccccc1)C(N)=O` [Ac-YEKF-NH2] (Ac-YEKF-NH2): 64% and more than 7.38. For the molecule `CC(=O)N[C@H](Cc1ccc(O)cc1)C(=O)N[C@H](CCC(=O)O)C(=O)N[C@H](CCCNC(=N)N)C(=O)N[C@H](Cc1ccccc1)C(=O)N[C@H](CCCCNC(=O)OCc1ccccc1)C(N)=O` [Ac-YERFK(εZ)-NH2] (Ac-[dY][dE][dR][dF][dK](Cbz)-NH2), under setting [3], the inhibition at 0.01 µM was 6%. For the same molecule, the pIC50 under setting [4] was less than 8.00. `CC(=O)N[C@H](Cc1ccc(O)cc1)C(=O)N[C@H](CCC(=O)O)C(=O)N[C@H](CCCNC(=N)N)C(=O)N1CCC[C@@H]1C(N)=O` [Ac-YERP-NH2] (Ac-[dY][dE][dR][dP]-NH2): the inhibition at 0.042 µM under setting [5] was determined as 0%. Turning to `CC(=O)N[C@H](Cc1ccc(O)cc1)C(=O)N[C@H](CCC(=O)O)C(=O)N[C@H](CCCNC(=N)N)C(=O)N[C@H](C)C(N)=O` [Ac-YERA-NH2] (Ac-[dY][dE][dR][dA]-NH2), the inhibition at 0.01 µM under setting [6] was found to be 28%. For the molecule `CC(=O)N[C@H](Cc1ccc(O)cc1)C(=O)N[C@H](CCC(=O)O)C(=O)N[C@H](CCCNC(=N)N)C(=O)N[C@H](Cc1ccccc1)C(N)=O` [Ac-DTP2, Ac-Tyr-Glu-Arg-Phe-NH2], the pIC50 is, setting by setting: under setting [7], 9.66; under setting [8], 9.66. Turning to `N=C(N)NCCC[C@@H](NC(=O)[C@@H](CCC(=O)O)NC(=O)[C@@H](Cc1ccc(O)cc1)NC(=O)OCC1c2ccccc2-c2ccccc21)C(=O)N[C@H](Cc1ccccc1)C(N)=O` [Fmoc-YERF-NH2], the inhibition at 0.01 µM under setting [3] is 60%. In addition, the pIC50 under setting [4] was more than 8.00.

With `NC(=O)[C@@H](Cc1ccccc1)NC(=O)[C@@H](Cc1c[nH]cn1)NC(=O)[C@H](N)Cc1ccc(O)cc1` [H-YHF-NH2], the pIC50 under setting [2] is 9.19. Consider `CC(=O)N[C@H](Cc1ccc(O)cc1)C(=O)N[C@H](CC(=O)O)C(=O)N[C@H](Cc1c[nH]cn1)C(=O)N[C@H](Cc1ccccc1)C(N)=O` [Ac-DTP1, Ac-Tyr-Asp-His-Phe-NH2], for which the pIC50 under setting [7] is 9.72 and the pIC50 under setting [8] was 9.70. As to `NC(=O)[C@@H](Cc1ccccc1)NC(=O)[C@@H](Cc1c[nH]cn1)NC(=O)[C@@H](CC(=O)O)NC(=O)[C@@H](Cc1ccc(O)cc1)NC(=O)OCc1ccccc1` [z-DTP1, z-YDHF-NH2] (Cbz-[dY][dD][dH][dF]-NH2), the inhibition at 0.01 µM under setting [3] is 84%. As for `CC(=O)N[C@H](Cc1ccc(O)cc1)C(=O)N[C@H](C)C(=O)N[C@H](CCCNC(=N)N)C(=O)N[C@H](Cc1ccccc1)C(N)=O` [Ac-YARF-NH2] (Ac-[dY][dA][dR][dF]-NH2), the inhibition at 0.042 µM (read-out: % inhibition of (ELISA)) turned out to be 17%.

Consider `NC(=O)CC[C@@H](NC(=O)[C@@H](Cc1c[nH]cn1)NC(=O)[C@@H](CC(=O)O)NC(=O)[C@@H](Cc1ccc(O)cc1)NC(=O)OCc1ccccc1)C(N)=O` [z-DNC, z-YDHQ-NH2] (Cbz-[dY][dD][dH][dQ]-NH2), for which, under setting [3], the inhibition at 0.01 µM was determined as 12%. For the molecule `CC(=O)N[C@H](Cc1ccc(O)cc1)C(=O)N[C@H](CCC(=O)O)C(=O)N1CCC[C@@H]1C(=O)N[C@H](Cc1ccccc1)C(N)=O` [Ac-YEPF-NH2] (Ac-[dY][dE][dP][dF]-NH2), the inhibition at 0.042 µM under setting [5] stood at 13%.

With `CC(=O)N[C@@H](Cc1ccc(O)cc1)C(=O)N[C@@H](CC(=O)O)C(=O)N[C@@H](CCCCN)C(=O)N[C@@H](Cc1c[nH]c2ccccc12)C(N)=O` [Ac-YDKW-NH2] (Ac-YDKW-NH2), the inhibition at 0.042 µM under setting [1] was determined as 43%. Also, the pIC50 under setting [2] was less than 8.00.

`CC(=O)N[C@@H](Cc1c[nH]c2ccccc12)C(=O)N[C@@H](CCC(=O)O)C(=O)N[C@@H](Cc1c[nH]cn1)C(=O)N[C@@H](Cc1c[nH]c2ccccc12)C(N)=O` [Ac-WEHW-NH2] (Ac-WEHW-NH2): the inhibition at 0.042 µM under setting [1] amounted to 75%. In addition, the pIC50 under setting [2] is more than 7.38. Turning to `CC(=O)N[C@@H](Cc1c[nH]c2ccccc12)C(=O)N[C@@H](CCC(=O)O)C(=O)N[C@@H](CCCNC(=N)N)C(=O)N[C@@H](Cc1c[nH]c2ccccc12)C(N)=O` [Ac-WERW-NH2] (Ac-WERW-NH2), the inhibition at 0.042 µM runs as follows: under setting [1], 64%; under setting [5], 69%. For the same molecule, the pIC50 under setting [2] was more than 7.38. Consider Ac-WEHF-NH2, for which the “% inhibition (ELISA)” value (Table S2, peptide at 42 nM) is on record as 35%. Take `NC(=O)CC[C@@H](NC(=O)[C@@H](Cc1c[nH]cn1)NC(=O)[C@@H](CC(=O)O)NC(=O)[C@@H](Cc1ccc(O)cc1)NC(=O)OCC1c2ccccc2-c2ccccc21)C(N)=O` [Fmoc-YDFQ-NH2]: under setting [3], the inhibition at 0.01 µM worked out at 19%. For the molecule `CC(=O)N[C@@H](Cc1ccc(O)cc1)C(=O)N[C@@H](CCC(=O)O)C(=O)N[C@@H](CCCNC(=N)N)C(=O)N[C@@H](Cc1ccccc1)C(N)=O` [Ac-LTP2, Ac-YERF-NH2], the pIC50 was less than 8.00 under setting [8] and 9.40 under setting [2]. Moreover, the inhibition at 0.042 µM under setting [1] was 93%. Turning to Ac-WDHW-NH2, the “% inhibition (ELISA)” value (Table S2, peptide at 42 nM) stood at 50%. On to Ac-YDRW-NH2, for which, for the setting “Table S2, peptide at 42 nM”, the “% inhibition (ELISA)” value came out at 43%. In the case of `CC(=O)N[C@@H](Cc1c[nH]c2ccccc12)C(=O)N[C@@H](CC(=O)O)C(=O)N[C@@H](Cc1c[nH]cn1)C(=O)N[C@@H](Cc1ccccc1)C(N)=O` [Ac-WDHF-NH2] (Ac-WDHF-NH2), the inhibition at 0.042 µM under setting [1] amounted to 28%. In addition, the pIC50 under setting [2] was less than 7.38.

As for Ac-YERW-NH2, under “Table S2, peptide at 42 nM”, the “% inhibition (ELISA)” value was 27%. As to Ac-YDRF-NH2, under “Table S2, peptide at 42 nM”, the “% inhibition (ELISA)” value was 45%. Turning to `CC(=O)N[C@H](Cc1ccc(O)cc1)C(=O)N[C@H](CC(=O)O)C(=O)N[C@H](Cc1c[nH]cn1)C(=O)N[C@H](Cc1ccccc1)C(=O)N[C@H](CCCCNC(=O)OCc1ccccc1)C(N)=O` [Ac-YDHFK(εZ)-NH2] (Ac-[dY][dD][dH][dF][dK](Cbz)-NH2), the inhibition at 0.01 µM under setting [3] amounted to 8%. Also, under setting [4], the pIC50 was less than 8.00. The matching figures for `NC(=O)[C@@H](Cc1ccccc1)NC(=O)[C@@H](Cc1c[nH]cn1)NC(=O)[C@@H](CC(=O)O)NC(=O)[C@@H](Cc1ccc(O)cc1)NC(=O)OCC1c2ccccc2-c2ccccc21` [Fmoc-YDHF-NH2]: 58% and more than 8.00. `CC(=O)N1CCCC1C(=O)NC(CCC(=O)O)C(=O)NC(CCCNC(=N)N)C(=O)NC(Cc1ccccc1)C(N)=O` (stereo not drawn) [Ac-PERF-NH2] (Ac-PERF-NH2; configuration not given here): the inhibition at 0.01 µM under setting [6] was 24%. In the case of `CC(=O)N[C@H](Cc1ccc(O)cc1)C(=O)N1CCC[C@@H]1C(=O)N[C@H](CCCNC(=N)N)C(=O)N[C@H](Cc1ccccc1)C(N)=O` [Ac-YPRF-NH2] (Ac-[dY][dP][dR][dF]-NH2), the inhibition at 0.042 µM under setting [5] was 13%. Ac-WDRF-NH2: the “% inhibition (ELISA)” value (Table S2, peptide at 42 nM) turned out to be 45%.

As for `CC(=O)N[C@H](Cc1ccc(O)cc1)C(=O)N[C@H](CCC(=O)O)C(=O)N[C@H](C)C(=O)N[C@H](Cc1ccccc1)C(N)=O` [Ac-YEAF-NH2] (Ac-[dY][dE][dA][dF]-NH2), the inhibition at 0.042 µM under setting [5] was found to be 13%. `CC(=O)N[C@@H](Cc1c[nH]c2ccccc12)C(=O)N[C@@H](CCC(=O)O)C(=O)N[C@@H](CCCCN)C(=O)N[C@@H](Cc1c[nH]c2ccccc12)C(N)=O` [Ac-WEKW-NH2] (Ac-WEKW-NH2): the inhibition at 0.042 µM under setting [1] came out at 58%. Besides, under setting [2], the pIC50 is more than 7.38. The matching figures for `CC(=O)N[C@@H](Cc1ccc(O)cc1)C(=O)N[C@@H](CCC(=O)O)C(=O)N[C@@H](Cc1c[nH]cn1)C(=O)N[C@@H](Cc1c[nH]c2ccccc12)C(N)=O` [Ac-YEHW-NH2] (Ac-YEHW-NH2): 64% and more than 7.38. With `COc1ccc(C(=O)N[C@H](Cc2ccc(O)cc2)C(=O)N[C@H](CC(=O)O)C(=O)N[C@H](Cc2c[nH]cn2)C(=O)N[C@H](CCC(N)=O)C(N)=O)cc1O` ({Benzoyl(3-OH,4-OMe)}-[dY][dD][dH][dQ]-NH2), the inhibition at 0.01 µM (read-out: % inhibition (ELISA)) stood at 7%. Consider `N=C(N)NCCC[C@@H](NC(=O)[C@H](N)Cc1ccc(O)cc1)C(=O)N[C@H](Cc1ccc(O)cc1)C(N)=O` [H-YRY-NH2], for which the pIC50 under setting [2] was 9.12.
